Results from patent US7220822B2, “CD28 mimetics for blocking T cell mediated immune reactions” (The Ohio State University, priority 2000, dated 2007).
Read-outs that look alike come from different tables or passages of the source. Square brackets hold non-standard residues; d marks the D form. Peptide text beside a SMILES is read from it.

Tests used:
[1] = molecular target: T1, CD80-Ig (Homo sapiens, UniProt P33681); assay: Direct kinetic analysis of CD28 peptide binding to immobilized CD80-Ig by surface plasmon resonance (BIACORE); settings: for maximum response units obtained for binding to CD80-Ig: SPR direct binding; for kd: direct binding; for kon: pH 7.4, direct binding, read-out: ka
T1 construct: extracellular domain of CD80 fused with the constant region of mouse IgG1 heavy chain
Description: Binding experiments were performed by surface plasmon resonance (SPR) on an instrument sold under the trademark BIACORE™ from Pharmacia Biosensor (Uppasala, Sweden).
CD80-Ig (extracellular domain of CD80 fused with the constant region of mouse IgG1 heavy chain) at 35 μg/ml in 10 mM sodium acetate buffer, pH 4.2, was coupled to a research grade CM 5 sensor chip using a standard amine coupling procedure with the following modifications (38). To reduce the immobilization level of the ligand, the surface was activated for 3 (instead of 7) minutes with N-hydroxysuccinamide and […]. […] Following coupling, noncovalently bound ligand was removed by washing twice with 5 mM NaOH.
The analytes were also injected at the same concentration and injection times over an empty flow cell with nothing immobilized.
Data analysis was performed with BIAEVALUATION™ software version 2.1(Pharmacia Biosensor AB). […] Prior to kinetic analysis, data were adjusted to zero baseline level by subtracting the background responses obtained by injection of the analytes through a control flow cell with no ligand immobilized. First, the dissociation rate constant, kd, (units: s^−1) was determined, by fitting experimental data from the buffer flow part of the sensogram to the equation R(t)=R1*e^−kd*(t^0^−t^1^) (1) where t0 is the injection time, R1 is the response level at the start of dissociation time t1 and kd is the dissociation rate constant.
The kd value obtained was used as a constant during the analysis of the injection phase data. Binding data above the noise level was selected by converting the sensogram to a plot of the logarithm of the binding rate vs time (dR/dt vs. time). The ka was determined by nonlinear curve fitting of the following equation R(t)=Req*{1−e^−(k^a^*C+k^d^)*(t) (2) where R(t) is the response at time t, Req is the steady state response level, ka is the association rate constant (units: M^−1s^−1), kd is the dissociation rate constant and C is the concentration of the injected peptide analyte. An offset was added to account for the refractive index differences between the analyte and the running buffer.
After analyzing sensograms obtained from injections of increasing concentrations of peptide analytes or CD28-Ig, the experimental data was analyzed using the BIAsimulation software 2.1. A plot of the logarithm of (dR/dt) against time was calculated from the sensograms, and then the slopes at different concentrations were plotted against the concentrations of the peptide analyte. Different angles obtained of the linear lines represent the variation of affinities, which gives the association rate constant (ka) from the equation ln dR/dt=ln(kaCR max)−KaC+kd)t (4) where dR/dt is the rate of change of the SPR signal, C is the concentration of the analyte, Rmax is the maximum analyte binding capacity in RU and R is the SPR signal in RU at time t. The dissociation rate constant is obtained from the equation Kd=kd/ka (5)

[2] = tested on: CD4+ LNC from Vα4/Vβ8.2 TCR transgenic mice; format: cell-based, mouse; settings: CD4+ LNC and spleen cells, NAc 1-11 10 μg/ml, all concentrations used
Description: The in vitro effect of varying concentration of the CD 28 peptide mimetics on CD4+ lymph node cells and spleen cells from transgenic mice bearing the Vα 4 Vβ8.2 TCR specific for MBP Ac 1-11 was determined.
CD4+ T cells were purified from pooled peripheral lymph nodes (inguinal, axillary, brachial, cervical, popliteal), and mesenteric lymph nodes and spleen of 6–8 wk old Vα4/Vβ8.2 TCR transgenic mice by positive selection. Single cell suspensions were prepared by lympholyte M gradient, washed, counted and incubated with magnetic bead conjugated anti-mouse CD4 (L3T4) (Miltenyi Biotech Corporation) followed by positive selection using magnetic selection columns. Purity of the CD4^+ cells was greater than 90% as assessed by staining with FITC labeled anti-mouseVβ8.2 mAb (Pharmingen). During the selection process, T cells maintain a naïve phenotype with no evidence for T cell activation as measured by proliferation in culture. Purified CD4+ T-cells (5×10^4 cells/well) were cultured together with wild type splenocytes from B10.PL mice as APC's (10^5 cells/well) in RPMI 1640 containing 10% FCS, 25 mM HEPES, 2 mM L-glutamine, 50 U/ml penicillin, 50 μg/ml streptomycin, and 5×10–5 M 2-ME in round-bottom 96-well plates and MBP (40 μg/ml) or MBP NAc1-11 (10 μg/ml) or media only in the presence or absence of synthetic CD28 peptide analogues at different concentrations in triplicate wells for 72 h, including a final 18-h pulse with [^3H] thymidine. Cultures were harvested onto glass-fiber mats using a Skatron harvester (Skatron, Sterling, Va.) and were counted by liquid scintillation on LKB Betaplate (LKB, Rockville, Md.). The means of the triplicate were determined and the results are expressed as delta cpm (mean counts per minute of cultures with Ag-mean counts per minute of cultures with medium alone)±SD.

T1 sequence (P33681 35-242 limits assumed, other chains not shown): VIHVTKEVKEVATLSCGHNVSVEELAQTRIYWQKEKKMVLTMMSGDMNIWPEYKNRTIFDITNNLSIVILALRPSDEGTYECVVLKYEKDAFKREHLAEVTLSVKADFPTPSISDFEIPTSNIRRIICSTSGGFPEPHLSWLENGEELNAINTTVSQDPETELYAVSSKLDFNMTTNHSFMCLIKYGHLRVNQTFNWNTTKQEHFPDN

Row | Structure (SMILES) | maximum response units obtained for binding to CD80-Ig [1] [RU] | kd ([1]; C 1.50E+03 nM) [s⁻¹] | kd ([1]; C 3.00E+03 nM) [s⁻¹] | kd ([1]; C 3.75E+02 nM) [s⁻¹] | kd ([1]; C 6.00E+03 nM) [s⁻¹] | kd ([1]; C 7.50E+02 nM) [s⁻¹] | kon ([1]; C 1.50E+03 nM) [M⁻¹ s⁻¹] | kon ([1]; C 3.00E+03 nM) [M⁻¹ s⁻¹] | kon ([1]; C 3.75E+02 nM) [M⁻¹ s⁻¹] | kon ([1]; C 6.00E+03 nM) [M⁻¹ s⁻¹] | kon ([1]; C 7.50E+02 nM) [M⁻¹ s⁻¹] | proliferative response / inhibition of T cell proliferation (in words) [2] | kd ([1]; C 1.00E+03 nM) [s⁻¹] | kon ([1]; C 1.00E+03 nM) [M⁻¹ s⁻¹]
1 | CC[C@H](C)[C@H](NC(=O)[C@@H](NC(=O)CNC(=O)[C@H](CC(N)=O)NC(=O)[C@H](CO)NC(=O)[C@H](CCCNC(=N)N)NC(=O)[C@H](CCC(=O)O)NC(=O)[C@H](CC(N)=O)NC(=O)[C@H](CC(=O)O)NC(=O)[C@H](CC(C)C)NC(=O)[C@H](Cc1ccc(O)cc1)NC(=O)[C@@H]1CCCN1C(=O)[C@@H]1CCCN1C(=O)[C@@H]1CCCN1C(=O)[C@H](Cc1ccc(O)cc1)NC(=O)[C@H](CCSC)NC(=O)[C@H](Cc1ccccc1)NC(=O)[C@H](CCC(=O)O)NC(=O)[C@@H](NC(=O)[C@H](CCCCN)NC(C)=O)[C@@H](C)CC)[C@@H](C)O)C(N)=O [EL CD28] (Ac-KIEFMYPPPYLDNERSNGTI-NH2) | 667.5 | 0.242 | 0.214 | 0.399 | 0.273 | 0.274 | 115000 | 137000 | 246000 | 111000 | 110000 | significantly less | – | –
2 | CC[C@@H](C)[C@@H](NC(C)=O)C(=O)N[C@@H](C(=O)NCC(=O)N[C@H](CC(N)=O)C(=O)N[C@H](CO)C(=O)N[C@H](CCCNC(=N)N)C(=O)N[C@H](CCC(=O)O)C(=O)N[C@H](CC(N)=O)C(=O)N[C@H](CC(=O)O)C(=O)N[C@H](CC(C)C)C(=O)N[C@H](Cc1ccc(O)cc1)C(=O)N1CCC[C@@H]1C(=O)N1CCC[C@@H]1C(=O)N1CCC[C@@H]1C(=O)N[C@H](Cc1ccc(O)cc1)C(=O)N[C@H](CCSC)C(=O)N[C@H](Cc1ccccc1)C(=O)N[C@H](CCC(=O)O)C(=O)N[C@@H](C(=O)N[C@H](CCCCN)C(N)=O)[C@H](C)CC)[C@H](C)O [RI CD28] (Ac-[dI][dT]G[dN][dS][dR][dE][dN][dD][dL][dY][dP][dP][dP][dY][dM][dF][dE][dI][dK]-NH2) | 444.2 | 0.183 | 0.146 | – | 0.228 | – | 141000 | 122000 | – | 112000 | – | significantly less | 0.205 | 171000
